Data as given in article PMC12371487, “Phenylalkyl Acetophenones and Anacardic Acids from Knema oblongifolia with Synthetic Analogues as Anti-infectives and Antibacterial Agents” (ACS Bio & Med Chem Au, 2025).
pIC50: −log10 of the molar value. Converted amounts (≈) assume the structure as drawn. “And” between values parts separate entries of the source, which are not always exact repeats. Identical values can stand only once. Like-named read-outs stand apart in the source and are kept apart here.

Assays:
Format in all cases: cell-based
[1] = test system: Mycobacterium marinum (Mm) in infection of Dictyostelium discoideum; assay: Dd-Mm infection assay: intracellular Mm growth (luminescence)
Protocol: (§1) Plant extracts, fractions, or isolated compounds were stored at −20 °C and wrapped in aluminum foil if necessary. All manipulations with extracts, fractions, or compounds were performed under a sterile hood. Extracts, fractions, and compounds were resuspended throughout in DMSO to best solubilize extracts with diverse constituents. Extracts, fractions, or compounds were added to the assay plate in a 1:100 dilution. Assay solutions of extracts, fractions, and compounds were prepared in 96-well plates, stored at −20 °C, and thawed before the experiment at room temperature or warmer with or without shaking/vortexing to obtain a clear assay solution. Extracts were tested at 25 μg/mL and purified compounds in a dose–response curve of 6 concentrations with 100 μM being the top concentration and a 1:3 dilution step between each testing concentration. Since fractions were not weighed individually, the injection mass was used to calculate an average mass per fraction and thus a nominal mass concentration. Fractions were tested at a nominal concentration of 10 μg/mL.
(§2) As described in Nitschke et al. and Mottet et al., Dd Ax2(ka) expressing mCherry from the act5 chromosomal locus was infected with Mm M strain expressing the lux operon (luxCDABE) , by spinoculation.
(§3) Briefly, the day before the experiment, Mm was cultivated in 7H9 broth (Becton Dickinson, Difco Middlebrook 7H9) supplemented with 10% OADC (Becton Dickinson) and 0.05% tyloxapol (Sigma-Aldrich) and 50 μg/mL kanamycin at 32 °C overnight with continuous shaking. Additionally, the day before the experiment, 10^7 amoebae were plated in HL5-C in a 10 cm Petri dish (Falcon). On the day of the experiment, a volume of the Mm culture corresponding to a multiplicity of infection of 25 with respect to the number of amoebae in the Petri dish was added to the semiconfluent amoebae monolayer. Subsequently, the Petri dishes were centrifuged twice at 500g, as described in Mottet et al. To remove extracellular bacteria, dishes were rinsed with fresh HL5-C, and the infected cell population was resuspended in HL5-C with 5 U/mL penicillin and 5 μg/mL streptomycin (Gibco) to inhibit the extracellular growth of bacteria during the course of the experiment.
(§4) For testing fractions and purified compounds, 20 μL of infected cell suspension was plated into each well of a 384-well plate (Interchim FP-BA8240) to an effective cell number of 1 × 10^4 cells per well. Fractions or compounds including a vehicle control (0.3% DMSO final concentration) and a positive control (rifabutin, 10 μM final concentration) were added using an electronic multipipette (Sartorius). Subsequently, the well plates were sealed with a gas impermeable membrane (H769.1, Carl Roth), briefly centrifuged, and intracellular bacterial growth was monitored using an Agilent BioTek H1 plate reader and an Agilent BioTek BioStack plate stacker by recording luminescence over 72 h at 25 °C with readings taken every hour. Fluorescence was also recorded to monitor amoeba growth.
(§5) For both assays, growth curves were obtained by measuring the luminescence and fluorescence as a proxy for bacterial growth and host growth, respectively, for 72 h with time-points taken every hour. The “normalized residual growth” was computed by calculating the area under the curve (AUC, trapezoid method) and normalizing it to the vehicle control (0.3% DMSO, set at 1) and a baseline curve (set at 0). The baseline curve was calculated by taking the median of the first measurement of all wells in a plate and extrapolating it over the complete time course. The threshold for hit detection was arbitrarily fixed at a cutoff of normalized residual growth ≤0.5. Normalized values were averaged over technical and biological replicates (all experiments on isolated compounds have at least n = 3 and N = 3, whereas the primary extract screening and microfractions testing had values of n = 1 and N = 3). […]

[2] = test system: Dictyostelium discoideum (Dd) in infection; assay: Dd-Mm infection assay: host amoeba growth (fluorescence); conditions: infected Dd, fluorescence AUC over 72 h at 25 °C, 6-concentration curve, top 100 μM, 1:3 steps, IC50 interpolated
Protocol: as §1, §2, §3, §4, §5

[3] = test system: Mycobacterium marinum (Mm) in broth; assay: Mm growth in broth (antibiotic assay, luminescence); conditions: 72 h; for pIC50: read-out: IC50 on Mm in broth
Protocol: as §1, with “Extracts, fractions, and compounds were resuspended throughout in DMSO to best solubilize extracts with diverse constituents.” left out
For testing bacteria in broth, the preculture was diluted to a bacterial density of 3.75 × 10^5 bacteria per mL in 7H9 medium. Plating bacteria and compounds or fractions was performed analogously to the infection assay described above. Bacteria growth was monitored with the Agilent BioTek H1 plate reader by recording luminescence at 32 °C.
For both assays, growth curves were obtained by measuring the luminescence and fluorescence as a proxy for bacterial growth and host growth, respectively, for 72 h with time-points taken every hour. The “normalized residual growth” was computed by calculating the area under the curve (AUC, trapezoid method) and normalizing it to the vehicle control (0.3% DMSO, set at 1) and a baseline curve (set at 0). The baseline curve was calculated by taking the median of the first measurement of all wells in a plate and extrapolating it over the complete time course. The threshold for hit detection was arbitrarily fixed at a cutoff of normalized residual growth ≤0.5.
This procedure was also applied to screening extracts with slight modifications. The day before the experiment we preplated 10 μL of HL5-C using a dispenser (Thermo Multidrop), subsequently we preplated 2.2 μL of dissolved extracts from 96-well plates into quadrants 1, 2, and 3 of 384-well plates, whereas quadrant 4 was used for positive and vehicle controls. Preplating of extracts was performed using a liquid handler (Agilent Bravo). In total, 24 extract plates were distributed in triplicate into […] 384-well plates, amounting to 24 assay plates. The prepared plates were sealed and stored at 4 °C overnight. On the day of the experiment, nine 10 cm Petri dishes were infected (as described before) and grouped into three pools. The cell suspension was adjusted to 10^6 cells/mL, and 10 μL was plated into the 24 assay plates, resulting in 10^4 cells per well, as used for conventional infection experiments. Plates were sealed and placed in the plate stacker that supplied the plate reader. The same procedure was used to screen the same extracts on Mm in a broth. For both assays, the first time points and a time point after 72 h were recorded. Subsequently, we normalized the end point, first with the median of the full assay plate at the first time point and second with the end point of the vehicle controls in the respective assay plate.
For IC50 estimation, we used a rudimentary approach of interpolating the sample concentration between the two normalized residual growth values, which were closest to a value of 0.5.

[4] = test system: Staphylococcus aureus (Sa) Newman strain; assay: MIC determination in Mueller-Hinton broth (CLSI) on Sa; conditions: for MIC: Staphylococcus aureus, NEWMAN, read-out: MIC on Sa
Protocol: MICs were determined in Mueller–Hinton (MH) broth according to CLSI guidelines and were repeated at least on three different occasions.
The Newman strain ofS. aureus and the UCBPP-PA14 strain ofP. aeruginosa were used in this study.

[5] = Mm inside Dd, luminescence AUC over 72 h at 25 °C, 6-concentration curve, top 100 μM, 1:3 steps, IC50 interpolated
[6] = Mm in 7H9 broth, luminescence at 32 °C, IC50 interpolated

Row | Compound | pIC50 [1, 5] | pIC50 ([2]; Dictyostelium discoideum) | IC50 on Mm in broth [3, 6] | MIC on Sa ([4]; Mueller-Hinton broth, CLSI) | MIC ([4]; Mueller-Hinton broth, CLSI) | further results
1 | CC(=O)c1cc(Cl)c(O)cc1O [Compound 16, 5-Chloro-2,4-dihydroxyacetophenone] | 4.65 | 4.65 | not active | not active |  | 
2 | O=C(O)c1c(O)cccc1CCCCCCCCc1ccc2c(c1)OCO2 [Compound 9, Kneglobularic acid B] | 5.13 | 4.65 | Not active |  | 8 µg/mL (≈ 21.6 µM) | 
3 | 5-Chloro-2,4-dihydroxychalcone [Compound 22] | 5.75 |  |  | 32 μg·mL^–1 and 32 mg·L–1 |  | pIC50 [2]: 5.75; pIC50 [3, 6]: 4.32
4 | CCCCCCCCCCCc1cccc(O)c1C(=O)O [Compound 11, Anagigantic acid] | 5.61 | 5.61 | Not active |  | 8 µg/mL (≈ 27.4 µM) | 
5 | O=C(/C=C/c1cccc2ccccc12)c1cc(Cl)c(O)cc1O [Compound 26, (E)-1-(5-Chloro-2,4-dihydroxyphenyl)-3-(naphthalen-1-yl)prop-2-en-1-one] | 6.23 | 5.83 |  | not active |  | pIC50 ([3]; Mycobacterium marinum): 4.32
6 | CC(=O)c1c(O)cc(O)cc1CCCCc1ccccc1 [Compound 2, Knemolone B] | 4.65 | 4.65 | Not active |  | 32 µg/mL (≈ 113 µM) | 
7 | 3,5-Dichloro-2,4-dihydroxychalcone [Compound 23] | 5.75 |  |  | 4 μg·mL^–1 and 4 mg·L–1 |  | pIC50 [2]: 5.75; pIC50 [3, 6]: 4.32
8 | CCCCCCCCCCCCCc1cccc(O)c1C(=O)O [Compound 12, 6-Tridecylsalicylic acid] | 4.18 | 4.18 | Not active | Not active |  | 
9 | 2,4-Dihydroxychalcone [Compound 14] | 5.61 |  |  | 32 mg·L–1 |  | pIC50 [2]: 5.13; pIC50 [3, 6]: 4.18
10 | CC(=O)c1c(O)c(Cl)c(O)c(Cl)c1CCCCCCc1ccccc1 [Compound 29, 1-(3,5-Dichloro-2,4-dihydroxy-6-(6-phenylhexyl)phenyl)ethan-1-one] | 5.61 | 5.13 | not active |  | 4 to 8 µg/mL (≈ 10.5 to 21 µM) | 
11 | O=C(/C=C/c1c2ccccc2cc2ccccc12)c1cc(Cl)c(O)cc1O [Compound 27, (E)-3-(Anthracen-9-yl)-1-(5-chloro-2,4-dihydroxyphenyl)prop-2-en-1-one] | 6.23 | 4.80 | not active | 2 mg·L–1 | 2 µg/mL (≈ 5.34 µM) | specificity window (IC50 on Dd vs IC50 on intracellular Mm) ([1]; ratio of IC50 against Dd growth to IC50 on intracellular Mm): 25 fold
12 | CC(=O)c1cc(Br)c(O)cc1O [Compound 19, 5-Bromo-2,4-dihydroxyacetophenone] | 4.18 | 4.65 | not active | not active |  | 
13 | 3-Bromo-2,4-dihydroxychalcone [Compound 24] | 5.61 |  | not active | 64 mg·L–1 |  | pIC50 [2]: 5.61
14 | CCCCCCCCCc1cc(O)cc(O)c1C(C)=O [Compound 5, Knemolone D] |  | 4.65 | Not active |  | 2 µg/mL (≈ 7.18 µM) | IC50 on Mm in infection [1, 5]: Not active
15 | CC(=O)c1c(O)cc(O)cc1CCCCc1ccc2c(c1)OCO2 [Compound 1, Knemolone A] | 4.65 | 4.65 | Not active | Not active |  | 
16 | 5-Bromo-2,4-dihydroxychalcone [Compound 25] | 6.09 |  |  | not active |  | pIC50 [2]: 6.09; pIC50 [3, 6]: 4.18
17 | CN[C@H](CC(C)C)C(=O)N[C@H]1C(=O)N[C@@H](CC(N)=O)C(=O)N[C@H]2C(=O)N[C@H]3C(=O)N[C@H](C(=O)N[C@H](C(=O)O)c4cc(O)cc(O)c4-c4cc3ccc4O)[C@H](O)c3ccc(c(Cl)c3)Oc3cc2cc(c3O[C@@H]2O[C@H](CO)[C@@H](O)[C@H](O)[C@H]2O[C@H]2C[C@](C)(N)[C@H](O)[C@H](C)O2)Oc2ccc(cc2Cl)[C@H]1O [vancomycin, reference compound] |  |  |  |  |  | MIC [4]: 1 µg/mL (≈ 0.69 µM)
18 | CC(=O)c1ccc(O)c(Cl)c1O [Compound 15, 3-Chloro-2,4-dihydroxyacetophenone] | 4.65 | 4.65 | not active | not active |  | 
19 | CO[C@H]1/C=C/O[C@@]2(C)Oc3c(C)c(O)c4c(c3C2=O)C2=NC3(CCN(CC(C)C)CC3)NC2=C(NC(=O)/C(C)=C\C=C\[C@H](C)[C@H](O)[C@@H](C)[C@@H](O)[C@@H](C)[C@H](OC(C)=O)[C@@H]1C)C4=O [rifabutin, reference compound] | 6.70 |  |  |  |  | IC50 on Dd in infection [2]: not active; pIC50 ([3]; Mycobacterium marinum): 7.52
